# Data as given in patent EP2524912A1, “Amine derivatives” (Bionomics Limited, priority 2011, dated 2012).
# Target: human Kv1.3 (Homo sapiens, UniProt P22001)
# Assay: Kv1.3 patch-clamp electrophysiology (planar electrode, whole-cell, steady state current)
# Format: cell-based
# Settings: CHO/Kv1.3 stable cell line; steady state current amplitude at end of 500 ms depolarising pulse to +40 mV; values given as ranges; read-out: IC50 (Kv1.3 ephys steady state)
# Protocol: The inhibition data shown for the compounds of the list below was calculated using the steady state current amplitude at the end of the depolarising pulse in patch clamp evaluations (as described in the Pharmacology Example 2).
# The human Kv1.3 construct (Kv1.3/pENTR, clone IOH61428) was purchased from Invitrogen and subcloned into pcDNA 3.2-DEST (Invitrogen). CHO-K1 cells obtained from ATCC (cat #CCL-61) were transfected with the Kv1.3/pcDNA3.2DEST construct and a stable cell line was developed through two rounds of limiting dilution under G418 selection. Positive (Kv1.3 expressing) clones were identified using electrophysiology.
# CHO/Kv1.x stable cell lines were grown in a humidified atmosphere at 37 °C, 5% CO2 in T-75 flasks containing F12 Kaighn's medium supplemented with 10% fetal calf serum, 2 mM L-glutamine, 100 units/ml penicillin, 100 µg/ml streptomycin and 500 µg/ml G418 (to maintain selection). CHO/Kv1.1 and CHO/Kv1.5 cells used for patching were transferred to 33 °C for 48 hours prior to use.
# Kv1.x currents were measured using a planar electrode version (Nanion Technologies GMBH) of the patch-clamp technique. Whole-cell Kv1.x current transients were evoked by 500 ms depolarising voltage pulses to +40 mV from a holding potential of -80 mV applied at 10 s intervals for Kv1.1 and Kv1.5 and at 30 s intervals for Kv1.3 to allow adequate time for recovery from inactivation. Cells were continuously bathed in a buffered saline solution containing (mM): 160 NaCl, 4.5 KCI, 2 CaCl2, 1 MgCl2, 5 glucose, 10 HEPES, pH 7.4, 290-310 mOsm.Kg^-1. The internal (pipette) solution contained (mM): 10 NaCl, 70 KF, 75 KCI, 2 MgCl2, 10 HEPES, 10 EGTA, pH 7.2, 290-310 mOsm.Kg^-1. Series resistance compensation (60-80%) was applied when the peak current amplitude exceeded 2 nA.
# Compounds were initially dissolved in DMSO to 10 mM. After further dilution in DMSO, compounds were finally diluted in bath solution 1/200 (to give a final DMSO concentration of 0.5%) and applied directly to the recording chamber. Compounds were added at increasing concentrations allowing ample time for steady state block to be achieved between each concentration. Each compound was tested at 5-6 different concentrations on 2-3 cells. IC50 values can be determined by fitting the average normalised reduction of either the current integral or the steady state current amplitude at the end of the depolarising pulse obtained at each compound concentration to the Hill equation. The IC50 data reported herein is based on the steady state calculation.
# Chain of human Kv1.3 (P22001 whole entry): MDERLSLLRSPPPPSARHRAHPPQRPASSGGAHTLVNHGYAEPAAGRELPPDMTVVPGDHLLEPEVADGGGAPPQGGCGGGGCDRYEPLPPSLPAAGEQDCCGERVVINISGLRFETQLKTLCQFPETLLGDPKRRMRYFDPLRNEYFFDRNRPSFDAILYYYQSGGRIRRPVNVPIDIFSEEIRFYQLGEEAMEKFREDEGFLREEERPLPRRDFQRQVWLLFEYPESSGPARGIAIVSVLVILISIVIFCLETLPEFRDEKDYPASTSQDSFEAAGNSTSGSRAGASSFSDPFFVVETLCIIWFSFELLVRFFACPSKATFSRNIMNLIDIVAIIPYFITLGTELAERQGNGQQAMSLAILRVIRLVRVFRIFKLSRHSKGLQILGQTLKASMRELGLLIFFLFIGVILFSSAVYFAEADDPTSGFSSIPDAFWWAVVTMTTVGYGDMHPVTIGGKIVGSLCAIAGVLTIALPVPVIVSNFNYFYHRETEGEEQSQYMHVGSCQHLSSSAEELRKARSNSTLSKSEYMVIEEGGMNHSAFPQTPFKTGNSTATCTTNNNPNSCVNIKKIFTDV
row,IC50,SMILES
1,50 to 200 nM,CC(CCN(C(=O)CN1CCCC(F)(F)C1)C(C)c1ccc2c(c1)CCC2)c1ccc(F)cc1 (stereo not shown) [Example 69]
2,200 to 1000 nM,"O=C(CS(=O)(=O)c1ccc(F)cc1)N(Cc1ccccn1)C(c1ccccc1)C1CC1 (stereo not shown) [Example 15, N-[cyclopropyl(phenyl)methyl]-2-[(4-fluorophenyl)sulfonyl]-N-(pyridin-2-ylmethyl)acetamide]"
3,200 to 1000 nM,"CCC(CC)C(c1ccccc1)N(Cc1ccccn1)C(=O)CCc1ccc(F)cc1 (stereo not shown) [Example 22, N-(2-ethyl-1-phenylbutyl)-3-(4-fluorophenyl)-N-(pyridin-2-ylmethyl)propanamide]"
4,> 1000 nM,"COCc1ccccc1C(C)N(Cc1ccccn1)C(=O)CS(=O)(=O)c1ccc(F)cc1 (stereo not shown) [Example 65, 2-[(4-fluorophenyl)sulfonyl]-N-{1-[2-(methoxymethyl)phenyl]ethyl}-N-(pyridin-2-ylmethyl)acetamide]"
5,200 to 1000 nM,"CC(CC(=O)N(Cc1ccccn1)C(C)c1nncn1C)c1ccc(F)cc1 (stereo not shown) [Example 78, 3-(4-fluorophenyl)-N-[1-(4-methyl-4H-1,2,4-triazol-3-yl)ethyl]-N-(pyridin-2-ylmethyl)butanamide]"
6,50 to 200 nM,"CC1(C)Oc2ccc(C(C3CC3)N(Cc3ccccn3)C(=O)COc3ccc(F)cc3)cc2S1(=O)=O (stereo not shown) [Example 77, N-[cyclopropyl(2,2-dimethyl-3,3-dioxido-1,3-benzoxathiol-5-yl)methyl]-2-(4-fluorophenoxy)-N-(pyridin-2-ylmethyl)acetamide]"
7,50 to 200 nM,"COc1ccc(C(C2CC2)N(Cc2ccccn2)C(=O)CCc2ccc(F)cc2)cc1 (stereo not shown) [Example 2, N-[cyclopropyl(4-methoxyphenyl)methyl]-3-(4-fluorophenyl)-N-(pyridin-2-ylmethyl)propanamide]"
8,200 to 1000 nM,"CC(c1ccc2c(c1)CCC2)N(CCOc1cccc(Cl)n1)C(=O)CCc1ccc(F)cc1 (stereo not shown) [Example 45, N-[1-(2,3-dihydro-1H-inden-5-yl)ethyl]-3-(4-fluorophenyl)-N-[2-(6-chloropyridin-2-yloxy)ethyl]propanamide]"
9,200 to 1000 nM,"CC(CCN(C(=O)c1cccnc1)C(C)c1ccc2c(c1)CCC2)c1ccc(F)cc1 (stereo not shown) [Example 68, N-[1-(2,3-dihydro-1H-inden-5-yl)ethyl]-N-[3-(4-fluorophenyl)butyl]pyridine-3-carboxamide]"
10,200 to 1000 nM,"COCc1ccccc1C(C)N(Cc1ccccn1)C(=O)CCc1ccc(F)cc1 (stereo not shown) [Example 57, 3-(4-fluorophenyl)-N-{1-[2-(methoxymethyl)phenyl]ethyl}-N-(pyridin-2-ylmethyl)propanamide]"
11,200 to 1000 nM,"COc1ccc(CN(C(=O)CCc2ccc(F)cc2)C(C)c2ccccc2)cn1 (stereo not shown) [Example 43, 3-(4-fluorophenyl)-N-(1-phenylethyl)-N-(6-methoxypyridin-3-ylmethyl)propanamide]"
12,200 to 1000 nM,"CC(c1ccc2c(c1)SC(C)(C)O2)N(Cc1ccccn1)C(=O)CCc1cccc(C(F)(F)F)c1 (stereo not shown) [Example 62, N-[1-(2,2-dimethyl-1,3-benzoxathiol-5-yl)ethyl]-N-(pyridin-2-ylmethyl)-3-[3-(trifluoromethyl)phenyl]propanamide]"
13,50 to 200 nM,"O=C(CCc1ccc(F)cc1)N(Cc1ccccn1)C(c1ccccc1)C1CCCC1 (stereo not shown) [Example 23, N-[cyclopentyl(phenyl)methyl]-3-(4-fluorophenyl)-N-(pyridin-2-ylmethyl)propanamide]"
14,200 to 1000 nM,"CC(c1ccc2c(c1)SC(C)(C)O2)N(Cc1ccccn1)C(=O)CCc1ccc(F)cc1 (stereo not shown) [Example 54, N-[1-(2,2-dimethyl-1,3-benzoxathiol-5-yl)ethyl]-3-(4-fluorophenyl)-N-(pyridin-2-ylmethyl)propanamide]"
15,50 to 200 nM,"CC(CC(=O)N(Cc1ccccn1)C(c1ccc(Cl)cc1)C1CC1)S(=O)(=O)c1ccc(F)cc1 (stereo not shown) [Example 76, N-[(4-chlorophenyl)(cyclopropyl)methyl]-3-[(4-fluorophenyl)sulfonyl]-N-(pyridin-2-ylmethyl)butanamide]"
16,50 to 200 nM,"O=C(CCc1ccc(F)cc1)N(Cc1ccccn1)C(c1ccc(F)cc1)C1CCCC1 (stereo not shown) [Example 21, N-[cyclopentyl(4-fluorophenyl)methyl]-3-(4-fluorophenyl)-N-(pyridin-2-ylmethyl)propanamide]"
17,50 to 200 nM,"Cc1cccc(OCCN(C(=O)CCc2ccc(F)cc2)C(C)c2ccc3c(c2)CCC3)n1 (stereo not shown) [Example 53, N-[1-(2,3-dihydro-1H-inden-5-yl)ethyl]-3-(4-fluorophenyl)-N-[2-(6-methylpyridin-2-yloxy)ethyl]propanamide]"
18,50 to 200 nM,"CC(c1ccc2c(c1)CCC2)N(CCOc1ccccn1)C(=O)CCc1ccc(F)cc1 (stereo not shown) [Example 47, N-[1-(2,3-dihydro-1H-inden-5-yl)ethyl]-3-(4-fluorophenyl)-N-[2-(pyridin-2-yloxy)ethyl]propanamide]"
19,50 to 200 nM,"CC(c1ccc2c(c1)CCC2)N(CCOc1ccccn1)C(=O)CCCc1ccccc1 (stereo not shown) [Example 51, N-[1-(2,3-dihydro-1H-inden-5-yl)ethyl]-4-phenyl-N-[2-(pyridin-2-yloxy)ethyl]butanamide]"
20,< 50 nM,"O=C(C1CC1c1ccc(F)cc1)N(Cc1ccccn1)C(c1ccc(Cl)cc1)C1CC1 (stereo not shown) [Example 10, N-[(4-chlorophenyl)(cyclopropyl)methyl]-2-(4-fluorophenyl)-N-(pyridin-2-ylmethyl)cyclopropanecarboxamide]"
21,50 to 200 nM,"O=C(CCc1ccc(F)cc1)N(Cc1ccccn1)C(c1ccc(Cl)cc1)C1CC1 (stereo not shown) [Example 9, N-[cyclopropyl(4-chlorophenyl)methyl]-3-(4-fluorophenyl)-N-(pyridin-2-ylmethyl)propanamide]"
22,50 to 200 nM,"CC(C)C(c1ccccc1)N(Cc1ccccn1)C(=O)CCc1ccc(F)cc1 (stereo not shown) [Example 20, 3-(4-fluorophenyl)-N-(2-methyl-1-phenylpropyl)-N-(pyridin-2-ylmethyl)propanamide]"
23,200 to 1000 nM,"CC(c1ccc2c(c1)CCC2)N(CCOc1ccccn1)C(=O)C1(c2ccc(Cl)cc2)CCC1 (stereo not shown) [Example 50, 1-(4-chlorophenyl)-N-[1-(2,3-dihydro-1H-inden-5-yl)ethyl]-N-[2-(pyridin-2-yloxy)ethyl]cyclobutanecarboxamide]"
24,200 to 1000 nM,"Cc1cccc(OCCN(C(=O)CC(C)c2ccc(F)cc2)C(C)c2ccc3c(c2)CCC3)n1 (stereo not shown) [Example 52, N-[1-(2,3-dihydro-1H-inden-5-yl)ethyl]-3-(4-fluorophenyl)-N-[2-(6-methylpyridin-2-yloxv)ethyl]butanamide]"
25,200 to 1000 nM,"CC(c1ccc2c(c1)CCC2)N(Cc1ccccn1)C(=O)CCc1ccc(F)cc1 (stereo not shown) [Example 67, N-[1-(2,3-dihydro-1H-inden-5-yl)ethyl]-3-(4-fluorophenyl)-N-(pyridin-2-ylmethyl)propanamide]"
26,50 to 200 nM,"CC(CC(=O)N(CCOc1ccccn1)C(C)c1ccc2c(c1)CCC2)c1ccc(F)cc1 (stereo not shown) [Example 46, N-[1-(2,3-dihydro-1H-inden-5-yl)ethyl]-3-(4-fluorophenyl)-N-[2-(pyridin-2-yloxy)ethyl]butanamide]"
27,200 to 1000 nM,"CC(CC(=O)N(CCOc1cccc(Cl)n1)C(C)c1ccc2c(c1)CCC2)c1ccc(F)cc1 (stereo not shown) [Example 44, N-[1-(2,3-dihydro-1H-inden-5-yl)ethyl]-3-(4-fluorophenyl)-N-[2-(6-chloropyridin-2-yloxy)ethyl]butanamide]"
28,50 to 200 nM,"CC(CCN(C(=O)CN1CCC(F)CC1)C(C)c1ccc2c(c1)CCC2)c1ccc(F)cc1 (stereo not shown) [Example 70, N-[1-(2,3-dihydro-1H-inden-5-yl)ethyl]-N-[3-(4-fluorophenyl)butyl]-2-(4-fluoropiperidin-1-yl)acetamide]"
